Activity calls are given as the source filed them. No cut-off for these calls is given here.
What was measured:
Format in all cases: functional
HOP-62 = assay: Cytotoxicity against human HOP62 cells at 10 uM after 48 hrs by SRB assay
HCC 2998 = assay: Cytotoxicity against human HCC2998 cells at 10 uM after 48 hrs by SRB assay
[1] = Cytotoxicity against human RPMI8226 cells at 10 uM after 48 hrs by SRB assay; details: RPMI-8226, 48 h, read-out: GI
HT-29 = assay: Cytotoxicity against human HT-29 cells at 10 uM after 48 hrs by SRB assay; details: HT-29, 48 h, read-out: GI
ACHN = assay: Cytotoxicity against human ACHN cells at 10 uM after 48 hrs by SRB assay; details: read-out: GI
MCF7 = assay: Cytotoxicity against human MCF7 cells at 10 uM after 48 hrs by SRB assay; details: MCF7, 48 h, read-out: GI
[2] = Cytotoxicity against human SF268 cells at 10 uM after 48 hrs by SRB assay; details: SF-268, 48 h, read-out: GI
[3] = Cytotoxicity against human SF295 cells at 10 uM after 48 hrs by SRB assay; details: SF-295, 48 h, read-out: GI
786-0 = assay: Cytotoxicity against human 786-0 cells at 10 uM after 48 hrs by SRB assay; details: 786-0, 48 h, read-out: GI
[4] = Cytotoxicity against human PC3 cells at 10 uM after 48 hrs by SRB assay; details: PC-3, 48 h, read-out: GI
[5] = Cytotoxicity against human OVCAR8 cells at 10 uM after 48 hrs by SRB assay; details: OVCAR-8, 48 h, read-out: GI
MDA-MB-231 = assay: Cytotoxicity against human MDA-MB-231 cells at 10 uM after 48 hrs by SRB assay
[6] = Cytotoxicity against human BT549 cells at 10 uM after 48 hrs by SRB assay; details: BT-549, 48 h, read-out: GI
[7] = Cytotoxicity against human RXF393 cells at 10 uM after 48 hrs by SRB assay; details: RXF 393, 48 h, read-out: GI
M14 = assay: Cytotoxicity against human M14 cells at 10 uM after 48 hrs by SRB assay; details: M14, 48 h, read-out: GI
MDA-MB-435 = assay: Cytotoxicity against human MDA-MB-435 cells at 10 uM after 48 hrs by SRB assay; details: MDA-MB-435, 48 h, read-out: GI
NCI-H23 = assay: Cytotoxicity against human NCI-H23 cells at 10 uM after 48 hrs by SRB assay; details: NCI-H23, 48 h, read-out: GI
[8] = Cytotoxicity against human UO31 cells at 10 uM after 48 hrs by SRB assay; details: UO-31, 48 h, read-out: GI
LOX IMVI = assay: Cytotoxicity against human LOXIMVI cells at 10 uM after 48 hrs by SRB assay
[9] = Cytotoxicity against human SF539 cells at 10 uM after 48 hrs by SRB assay; details: SF-539, 48 h, read-out: GI
UACC-257 = assay: Cytotoxicity against human UACC257 cells at 10 uM after 48 hrs by SRB assay
A498 = assay: Cytotoxicity against human A498 cells at 10 uM after 48 hrs by SRB assay; details: A498, 48 h, read-out: GI
SK-MEL-28 = assay: Cytotoxicity against human SK-MEL-28 cells at 10 uM after 48 hrs by SRB assay; details: SK-MEL-28, 48 h, read-out: GI
MDA-MB-468 = assay: Cytotoxicity against human MDA-MB-468 cells at 10 uM after 48 hrs by SRB assay; details: MDA-MB-468, 48 h, read-out: GI
OVCAR-4 = assay: Cytotoxicity against human OVCAR4 cells at 10 uM after 48 hrs by SRB assay
Malme-3M = assay: Cytotoxicity against human MALME-3M cells at 10 uM after 48 hrs by SRB assay
K562 = assay: Cytotoxicity against human K562 cells at 10 uM after 48 hrs by SRB assay; details: K562, 48 h, read-out: GI
[10] = Cytotoxicity against human Hs 578T cells at 10 uM after 48 hrs by SRB assay; details: read-out: GI
[11] = Cytotoxicity against human UACC62 cells at 10 uM after 48 hrs by SRB assay; details: UACC-62, 48 h, read-out: GI
SR = assay: Cytotoxicity against human SR cells at 10 uM after 48 hrs by SRB assay; details: read-out: GI
[12] = Cytotoxicity against human HCT116 cells at 10 uM after 48 hrs by SRB assay; details: HCT-116, 48 h, read-out: GI
T47D = assay: Cytotoxicity against human T47D cells at 10 uM after 48 hrs by SRB assay; details: read-out: GI
[13] = Cytotoxicity against human HCT15 cells at 10 uM after 48 hrs by SRB assay; details: HCT-15, 48 h, read-out: GI
[14] = Cytotoxicity against human COLO205 cells at 10 uM after 48 hrs by SRB assay; details: COLO 205, 48 h, read-out: GI
CCRF-CEM = assay: Cytotoxicity against human CCRF-CEM cells at 10 uM after 48 hrs by SRB assay; details: read-out: GI
OVCAR-5 = assay: Cytotoxicity against human OVCAR5 cells at 10 uM after 48 hrs by SRB assay
U-251 = assay: Cytotoxicity against human U251 cells at 10 uM after 48 hrs by SRB assay; details: U-251, 48 h, read-out: GI
[15] = Cytotoxicity against human SW620 cells at 10 uM after 48 hrs by SRB assay; details: SW-620, 48 h, read-out: GI
A549 = assay: Cytotoxicity against human A549 cells at 10 uM after 48 hrs by SRB assay; details: A549, 48 h, read-out: GI
NCI-H460 = assay: Cytotoxicity against human NCI-H460 cells at 10 uM after 48 hrs by SRB assay; details: NCI-H460, 48 h, read-out: GI
[16] = Cytotoxicity against human TK10 cells at 10 uM after 48 hrs by SRB assay; details: TK-10, 48 h, read-out: GI
KM12 = assay: Cytotoxicity against human KM12 cells at 10 uM after 48 hrs by SRB assay; details: KM12, 48 h, read-out: GI
SK-MEL-5 = assay: Cytotoxicity against human SK-MEL-5 cells at 10 uM after 48 hrs by SRB assay; details: SK-MEL-5, 48 h, read-out: GI
[17] = Cytotoxicity against human HOP92 cells at 10 uM after 48 hrs by SRB assay; details: HOP-92, 48 h, read-out: GI
[18] = Cytotoxicity against human MOLT4 cells at 10 uM after 48 hrs by SRB assay; details: MOLT-4, 48 h, read-out: GI
DU-145 = assay: Cytotoxicity against human DU145 cells at 10 uM after 48 hrs by SRB assay
NCI-H322M = assay: Cytotoxicity against human NCI-H322M cells at 10 uM after 48 hrs by SRB assay
NCI-H226 = assay: Cytotoxicity against human NCI-H226 cells at 10 uM after 48 hrs by SRB assay; details: NCI-H226, 48 h, read-out: GI
NCI-H522 = assay: Cytotoxicity against human NCI-H522 cells at 10 uM after 48 hrs by SRB assay; details: NCI-H522, 48 h, read-out: GI
[19] = Cytotoxicity against human SKOV3 cells at 10 uM after 48 hrs by SRB assay; details: SK-OV-3, 48 h, read-out: GI
[20] = Cytotoxicity against human Caki1 cells at 10 uM after 48 hrs by SRB assay; details: CAKI-1, 48 h, read-out: GI
[21] = Cytotoxicity against human SNB19 cells at 10 uM after 48 hrs by SRB assay; details: SNB-19, 48 h, read-out: GI
[22] = Cytotoxicity against human SNB75 cells at 10 uM after 48 hrs by SRB assay; details: SNB-75, 48 h, read-out: GI
SN12C = assay: Cytotoxicity against human SN12C cells at 10 uM after 48 hrs by SRB assay; details: read-out: GI
[23] = Cytotoxicity against human OVCAR3 cells at 10 uM after 48 hrs by SRB assay; details: OVCAR-3, 48 h, read-out: GI

Cc1nc2ccc(Nc3nc(Nc4ccc(F)cc4)nc(N4CCCCC4)n3)cc2n1Cc1ccccc1
growth inhibition (GI) (HOP-62): inactive | growth inhibition (GI) (HCC 2998): inactive | inhibition of growth at 10 µM [1]: 25.2% | inhibition of growth at 10 µM (HT-29): 28.9% | inhibition of growth at 10 µM (ACHN): 3.6% | inhibition of growth at 10 µM (MCF7): 38.8% | inhibition of growth at 10 µM [2]: 4.31% | inhibition of growth at 10 µM [3]: 9.64% | inhibition of growth at 10 µM (786-0): 11.8% | inhibition of growth at 10 µM [4]: 21.3% | inhibition of growth at 10 µM [5]: 6.9% | growth inhibition (GI) (MDA-MB-231): inactive | inhibition of growth at 10 µM [6]: 5.37% | inhibition of growth at 10 µM [7]: 13.8% | inhibition of growth at 10 µM (M14): 7.86% | inhibition of growth at 10 µM (MDA-MB-435): 3.66% | inhibition of growth at 10 µM (NCI-H23): 5.43% | inhibition of growth at 10 µM [8]: 15.7% | growth inhibition (GI) (LOX IMVI): inactive | inhibition of growth at 10 µM [9]: 2.48% | growth inhibition (GI) (UACC-257): inactive | inhibition of growth at 10 µM (A498): 24.9% | inhibition of growth at 10 µM (SK-MEL-28): 3.66% | inhibition of growth at 10 µM (MDA-MB-468): 17.2% | growth inhibition (GI) (OVCAR-4): inactive | growth inhibition (GI) (Malme-3M): inactive | inhibition of growth at 10 µM (K562): 26.5% | inhibition of growth at 10 µM [10]: 0.58% | inhibition of growth at 10 µM [11]: 9.98% | inhibition of growth at 10 µM (SR): 50.7% | inhibition of growth at 10 µM [12]: 26.5% | inhibition of growth at 10 µM (T47D): 34.7% | inhibition of growth at 10 µM [13]: 16.6% | inhibition of growth at 10 µM [14]: 2.32% | inhibition of growth at 10 µM (CCRF-CEM): 20.5% | growth inhibition (GI) (OVCAR-5): inactive | inhibition of growth at 10 µM (U-251): 21.5% | inhibition of growth at 10 µM [15]: 5.34% | inhibition of growth at 10 µM (A549): 29.2% | inhibition of growth at 10 µM (NCI-H460): 17.7% | inhibition of growth at 10 µM [16]: 7.88% | inhibition of growth at 10 µM (KM12): 8.36% | inhibition of growth at 10 µM (SK-MEL-5): 22.9% | inhibition of growth at 10 µM [17]: 24.7% | inhibition of growth at 10 µM [18]: 30.7% | growth inhibition (GI) (DU-145): inactive | growth inhibition (GI) (NCI-H322M): inactive | inhibition of growth at 10 µM (NCI-H226): 12.3% | inhibition of growth at 10 µM (NCI-H522): 30.1% | inhibition of growth at 10 µM [19]: 2.27% | inhibition of growth at 10 µM [20]: 1.51% | inhibition of growth at 10 µM [21]: 17.5% | inhibition of growth at 10 µM [22]: 4.31% | inhibition of growth at 10 µM (SN12C): 3.75% | inhibition of growth at 10 µM [23]: 0.84%
